According to patent US5260330A, “Substituted anilides” (BASF Aktiengesellschaft, priority 1990, dated 1993):
Where a name gives a salt, the structure may show the parent alone.

Tested on: guinea pig hearts
Assay: ECG measurement of QT interval prolongation in isolated guinea pig hearts (Langendorff perfusion)
Design: species or system guinea pig (male Duncin-Hartley)
Details: for EC20: Cavia porcellus, 0.25 h, isolated guinea pig heart, Langendorff perfusion, 37° C, cumulative administration at 15 min intervals into the perfusate, ED20% by linear regression of log dose, read-out: ED20% (dose at which there is a 20% increase in the QT interval from the initial figure); for Relative effect ED20% (D-sotalol)/ED20% (Ex.): ratio relative to D-sotalol, QT interval, guinea pig heart
Excerpt: In these the cardiac cycle is divided into systole (contraction of the heart), also called QT interval, and diastole (relaxation of the heart with filling of the ventricles). Repolarization inhibitors increase the QT interval with a negligible effect on the atrioventricular conduction time (PQ interval) and the period of isometric contraction (QRS time, from the start of systole until the semilunar valves open) (see Pschyrembel, 254th edition, 1982).
The activity of the compounds according to the invention as repolarization inhibitors can be investigated in animal experiments by ECG measurements on, for example, guinea pig hearts (see Basic Res. Cardiol. 82 (1987) 437; J. Pharmacol. Methods 21 (1989) 195). Used to compare the activities of a number of substances is, for example, the dose of an agent at which there is a 20% increase in the QT interval from the initial figure (ED20%).This is done by plotting the logarithm of the doses of the particular substances against the experimentally found relative changes in the QT interval, and using linear regression to determine the equation of a straight line from which the ED20% can be calculated.
This method was used to determine the ED20% values for the compounds of Examples 2 and 3 (see Table). D-sotalol was used as comparative substance.
The experimental animals were male Duncin-Hartley guinea pigs with a body weight of 300 to 350 g. 30 min after administration of 1250 I.U. of heparin/kg of body weight into the abdominal cavity, the animals were sacrificed by a blow to the back of the neck. After the common carotid arteries had been cut for exsanguination, the thoracic cavity was opened, and the heart was dissected out and attached to a perfusion apparatus. The Langendorff perfusion was carried out with Krebs-Henseleit solution (NaCl 6896 mg/l; KCl 350 mg/l; MgSO4 285 mg/l; CaCl2 370 mg/l; KH2 PO4 161 mg/l; NaHCO3 2090 mg/l; glucose 2000 mg/l) enriched with oxygen and heated to 37° C. The perfusion volume per unit time was adjusted to 4 to 6 ml/min for a total volume of 100 ml, and the perfusion pressure was adjusted to 60 to 70 mm Hg. Circulating perfusion was carried out after equilibration for 30 min.
The ECG measurements were made via two silver electrodes attached to the surface of the heart in the upper region of the left coronary artery and on the rear of the heart at the level of the valve plane. The PQ and QT intervals, the QRS time and the heart rate were measured.
The substance was administered cumulatively at intervals of 15 min into the perfusate.

| Structure (SMILES) | EC20 | Relative effect ED20% (D-sotalol)/ED20% (Ex.) |
| --- | --- | --- |
| CC(C)NCC(O)c1ccc(NS(C)(=O)=O)cc1 [D-sotalol, 4'-[1-hydroxy-2-(isopropylamino)ethyl]methanesulfonanilide, reference compound] | 16 µM |  |
| Cc1ccccc1C=CC(=O)Nc1cc(C)c(OCCN2CCCC2)c(C)c1 [Example 2, [3',5'-Dimethyl-4'-(2-(N-pyrrolidinyl)ethoxy)]-(2-methylphenyl)acrylanilidefumarate] | 0.5 µM | 32 |
| Cc1ccccc1CCC(=O)Nc1cc(C)c(OCCN2CCCC2)c(C)c1 [Example 3, [3',5'-Dimethyl-4'-(2-(N-pyrrolidinyl)ethoxy)]-3-(2-methylphenyl)propionanilide fumarate] | 0.31 µM | 51 |
